Experiment [1] deals with ovariectomized female mice. The experiment in a line: Intraperitoneal insulin tolerance test, curative model. The class given is in vivo, C57BL/6J mice. Particulars: test on day 52 of administration. Here is the method:
(§1) A curative mouse model for osteoporosis was used for experiments, as follows. 16-week old female C57Bl/6J mice were ovariectomized and left for 2 months to develop the symptoms of osteoporosis and postmenopausal weigh gain and glucose intolerance. Administration of the respective treatment was initiated following these 2 months after the ovariectomies, i.e, once the mice already developed the symptoms of the respective metabolic disease.
Insulin sensitivity (normalized values) was measured by intraperitoneal insulin tolerance test of ovariectomized female mice, administered with the respective treatment starting 2 months flowing the surgery, considered as day 0. Test is performed on day 52 after staring the administration.
Ovariectomy: 16 weeks old C57Bl/6J female mice, obtained through Janvier, were be anesthetised with Xylazin/Ketamin (injection of 120 μl of a mixture of 120 mg/kg ketamine and 16 mg/kg xylazine) and shaved below the ribs on the back side. Betadine was be applied to the area for appropriate disinfection. After a 1-2 cm incision through the skin and the muscle layer just below the ribs, the ovary was localized, the fallopian tube ligated with dissolving suture and the ovary removed. The muscle layer was sutured with dissolving suture, the wound closed with staples and disinfected. The same procedure was/will be performed on the other side. […]

Experiment [2] deals with ovariectomized female mice. Kind of experiment: 3-point bending test of femur, curative model. The class given is in vivo, C57BL/6J mice. The following applies: postmortem, day 60.
Description: as §1
Ovariectomy: 16 weeks old C57Bl/6J female mice, obtained through Janvier, were be anesthetised with Xylazin/Ketamin (injection of 120 μl of a mixture of 120 mg/kg ketamine and 16 mg/kg xylazine) and shaved below the ribs on the back side. Betadine was be applied to the area for appropriate disinfection. After a 1-2 cm incision through the skin and the muscle layer just below the ribs, the ovary was localized, the fallopian tube ligated with dissolving suture and the ovary removed. The muscle layer was sutured with dissolving suture, the wound closed with staples and disinfected. The same procedure was/will be performed on the other side. A dose of Tamgesic was/will be administered 4 hours after the surgery, and the staples were removed 7 days after the surgery under isoflurane anesthesia. The sham-operated animals underwent the same procedure, without ligating the fallopian tube and the ovary excision. All mice were then kept for additional 2 months after the ovariectomies before starting the respective curative treatments.
Microbiota transplantation: Lactobacillus gasseri (DSM 20604) and Parabacteroides goldsteinii (DSM 19948) were pushased from DSMZ. Lactobacillus reuteri (PTA-6475) was obtained from ATCC. […] Freshly prepared bacteria were diluted in anaerobic PBS to a final concentration equivalent to 1.5 OD/ml at 600 nm. 200 ul of this suspension was gavaged every second day to ovariectomized mice, starting 2 months post-surgery for 38 day. From day 38 of the gavage until the day od sacrifice at day 60 the concentration was equivalent to 2 OD/ml at 600 nm, of which 200 ul was gavaged.
The amount administered was 80 μg/kg body weight once per week with subcutaneous injection, in total amount of 100-200 μl per injection.

For experiment [3], the system named is Procollagen Type-1 N Terminal Propeptide (P1NP). The experiment in a line: Plasma bone formation marker P1NP (ELISA). The class given is in vivo, mice. The following applies: P. goldsteinii 1.5 OD/ml, 200 μl every second day, given with alendronate 80 μg/kg BW once a week. The method, then:
Supplementation of P. goldsteinii increases secretion the bone formation marker P1NP, measured at Day 29 (FIG. 18A), or Day 50 (FIG. 18B) after the beginning of the treatment.
Measuring plasma bone turnover markers: After 5 h fasting (during the treatment), blood samples were collected from the tail of the mice with microvette capillary tubes containing EDTA and plasma was isolated after centrifuging 10000 g for 10 minutes. Plasma samples are collected during sacrifice (at the end of experiment) by taking 500 μl of blood from terminally anesthetized mice in tubes with 10 μl of […] EDTA, 4 μl of aprotinin (1.3%) and 4 μl of DPP-IV (10 mM), followed by centrifugation as described before. N-terminal pro-collagen type 1 extension pro-peptide (PINP) was measured with an ELISA kit (cat no:AC-33F, Immunodiagnostic Systems) according to manufacturers' instructions.
Background: In an ELISA, binding on a coated surface is turned into a signal by an enzyme label.

The conditions of experiment [4]: curative model; treatment started 2 months after ovariectomy; alendronate 80 μg/kg/week s.c.; HI P. goldsteinii by gavage every second day.

Each structure is given as a SMILES string.

On to `NCCCC(O)(P(=O)(O)O)P(=O)(O)O` [alendronate], for which, in experiment [1], the “Insulin sensitivity (intraperitoneal insulin tolerance test)” value is reported as “unaffected”. In experiment [2], the “Elastic energy of femurs (femur metaphysis, FIG. 10)” value is “no changes”; the “Elastic energy, femur midshaft” value is “No changes”; the “Stiffness, femur metaphysis” value was “corrected ovariectomy induced decreases in stiffness”; the “Stiffness, femur midshaft” value is recorded as “No changes”. Moreover, in experiment [2], the “Ultimate stress, femur metaphysis” value is given as “not observed to result in a statistically significant increase” and the “Ultimate stress, femur midshaft” value is given as “not observed to result in improvements”. Besides, in experiment [3], the “P1NP levels after 50 days of treatment” value is on record as “reduction in P1NP levels”. Moreover, the Body weight gain entry in experiment [4] was “did not alter the body weight”.
